Patent US20210206791
Several values for one entry are separate records, joined by “and”; a condition that tells them apart may be missing. Equal values may be shown once. Read-outs that look alike come from different tables or passages of the source.

Conditions: the molecule shown is the open-chain precursor, crosslinker bond, CH3CN/H2O 1:1, 0.1 mM, 25.0 °C

## H-Ala-Cys-Tyr-Lys-Arg-Ser-Asp-Phe-Thr-Cys-Gly-Gly-Gly-Ser-NH2?
bis-Pd aryl reagent 6b (2 equiv)/Tris pH 7.5
  ring closure, yield after HPLC: 85%
bis-Pd aryl reagent 6c (2 equiv)/Tris pH 7.5
  ring closure, yield after HPLC: 70%
bis-Pd aryl reagent 6e (2 equiv)/Tris pH 7.5
  ring closure, yield after HPLC: 100%
bis-Pd aryl reagent 6d (2 equiv)/Tris pH 7.5
  ring closure, yield after HPLC: 84%
bis-Pd aryl reagent (2 equiv, not named)/Tris pH 7.5
  ring closure, yield after HPLC: 79% and 92% and 94%
